{"source": "patent US20220081387A1", "about": "“METHODS FOR PREPARING AMMONIUM TETRATHIOMOLYBDATE” (Alexion Pharmaceuticals, Inc., priority 2019, published 2022)", "key": {"[1]": {"assay": "ATTM solubility in sample solution (HPLC), methanol, ethanol and purified water", "format": "physicochemical", "settings": "ethanol, purified water", "description": "The ATTM solubility was measured in sample solution (HPLC), methanol, ethanol and purified water."}, "[2]": {"assay": "Long-term stability study of ATTM samples, determined by HPLC", "format": "physicochemical", "settings": "after 6 months, by HPLC", "description": "ATTM Samples 1 and 2 were prepared essentially according to procedure in Example 1 starting with 12 kg of ammonium heptamolybdate. The isolated product was packed and stored immediately. Specifically, the samples were packaged corresponding to the packaging of the bulk material under argon in transparent anti-static polyethylene plastic bags, 90 10 10, 110 mm×170 mm, and the bags containing the samples were sealed with a plastic tie, and then subsequently packed in welded aluminium bags along with a drying agent in-between the two bags. Additional samples were packaged with ambient atmosphere in transparent anti-static polyethylene plastic bags, 90 10 10, 110 mm×170 mm. The bags containing the samples were sealed with a plastic tie, and then subsequently packed in welded aluminium bags along with a drying agent in-between the two bags."}}, "data": [{"compound": "[NH4+].[NH4+].[SH-].[SH-].[S]=[Mo]=[S]", "note": "[ATTM, Ammonium tetrathiomolybdate]", "values": [{"measurement": "ATTM solubility", "setting": "[1]", "value": "lowest in alcohols, particularly in ethanol, and higher in water"}, {"measurement": "degradation of ATTM on storage", "setting": "[2]", "value": "no significant degradation"}]}]}
